{"source": "paper PMC6001834", "about": "(Drug Design, Development and Therapy, 2018)", "test_system": "AMI rats", "assay": "In vivo effects of LNCs on infarct size", "design": "species or system Sprague-Dawley rats", "conditions": "intravenous injection, n=8, AMI group 58%", "data": [{"smiles": "Nc1ncnc2c1ncn2[C@@H]1O[C@H](CO)[C@@H](O)[C@H]1O", "note": "[free Ade, Adenosine]", "values": [{"measurement": "infarct size (percentage of whole size of the left ventricle)", "result": 47, "unit": "%"}]}]}
